Molecular target: α-synuclein fibrils (Homo sapiens, UniProt P37840)
Assay: Competitive radioligand binding with [^3H]BF2846 on α-synuclein fibrils
Details: [^3H]BF2846, α-synuclein fibrils; mean + Sd, n = 3; read-out: α-syn Ki
Procedure: Competition binding assays were performed with [^3H]BF2846 and [^3H]PIB to measure affinity to Asyn and Aβ. […]

| Ki [nM] | SMILES |
| --- | --- |
| 11.6 | CCOC(=O)c1cnc(N2C3CCC2CN(c2ccccn2)C3)nc1N [Compound 1, Ethyl 4-amino-2-(3-(pyridin-2-yl)-3,8-diazabicyclo[3.2.1]octan-8-yl)pyrimidine-5-carboxylate] |
| 26.3 | CCOC(=O)c1cnc(N2C3CCC2CN(c2cc4ccccc4cn2)C3)nc1N [Compound 2, Ethyl 4-amino-2-(3-(isoquinolin-3-yl)-3,8-diazabicyclo[3.2.1]octan-8-yl)pyrimidine-5-carboxylate] |
| 23.3 | CCOC(=O)c1cnc(N2C3CCC2CN(c2cnc4ccccc4c2)C3)nc1N [Compound 3, Ethyl 4-amino-2-(3-(quinolin-3-yl)-3,8-diazabicyclo[3.2.1]octan-8-yl)pyrimidine-5-carboxylate] |
| 5.5 | CCOC(=O)c1cnc(N2CC3CCC(C2)N3c2ccccn2)nc1N [Compound 4, Ethyl 4-amino-2-(8-(pyridin-2-yl)-3,8-diazabicyclo[3.2.1]octan-3-yl)pyrimidine-5-carboxylate] |
| 58.5 | CCOC(=O)c1cnc(N2CC3CCC(C2)N3c2cc3ccccc3cn2)nc1N [Compound 5, Ethyl 4-amino-2-(8-(isoquinolin-3-yl)-3,8-diazabicyclo[3.2.1]octan-3-yl)pyrimidine-5-carboxylate] |
| 9.9 | CCOC(=O)c1cnc(N2CC3CCC(C2)N3c2cnc3ccccc3c2)nc1N [Compound 6, Ethyl 4-amino-2-(8-(quinolin-3-yl)-3,8-diazabicyclo[3.2.1]octan-3-yl)pyrimidine-5-carboxylate] |
| 8.9 | CCOC(=O)c1cnc(N2CCCN(c3ccccn3)CC2)nc1N [Compound 7, Ethyl 4-amino-2-(4-(pyridin-2-yl)-1,4-diazepan-1-yl)pyrimidine-5-carboxylate] |
| 15.2 | CCOC(=O)c1cnc(N2CCCN(c3cnc4ccccc4c3)CC2)nc1N [Compound 8, Ethyl 4-amino-2-(4-(quinolin-3-yl)-1,4-diazepan-1-yl)pyrimidine-5-carboxylate] |
| 4 | CCOC(=O)c1cnc(N2CCN(c3ccccn3)CC2)nc1N [Compound 9, Ethyl 4-amino-2-(4-(pyridin-2-yl)piperazin-1-yl)pyrimidine-5-carboxylate] |
| 2.5 | CCOC(=O)c1cnc(N2CCN(c3nc4ccccc4o3)CC2)nc1N [Compound 10, Ethyl 4-amino-2-(4-(benzo[d]oxazol-2-yl)piperazin-1-yl)pyrimidine-5-carboxylate] |
| 12.9 | CCOC(=O)c1cnc(N2CCN(c3nc4ccccc4s3)CC2)nc1N [Compound 11, Ethyl 4-amino-2-(4-(benzo[d]thiazol-2-yl)piperazin-1-yl)pyrimidine-5-carboxylate] |
| 23.4 | CCOC(=O)c1cnc(N2C3CCC2CN(c2nc4ccccc4s2)C3)nc1N [Compound 12, Ethyl 4-amino-2-(3-(benzo[d]thiazol-2-yl)-3,8-diazabicyclo[3.2.1]octan-8-yl)pyrimidine-5-carboxylate] |
| 12.1 | CCOC(=O)c1cnc(N2CCN(c3cc4ccccc4cn3)CC2)nc1N [Compound 13, Ethyl 4-amino-2-(4-(isoquinolin-3-yl)piperazin-1-yl)pyrimidine-5-carboxylate] |
| 3.1 | CCOC(=O)c1cnc(N2CCN(c3cnc4ccccc4c3)CC2)nc1N [Compound 14, Ethyl 4-amino-2-(4-(quinolin-3-yl)piperazin-1-yl)pyrimidine-5-carboxylate] |
| 10.8 | CCOC(=O)c1cnc(N2CCN(c3ccc4ccccc4n3)CC2)nc1N [Compound 15, Ethyl 4-amino-2-(4-(quinolin-2-yl)piperazin-1-yl)pyrimidine-5-carboxylate] |
| 2.4 | CCOC(=O)c1cnc(N2CCN(c3cnc4ccccc4n3)CC2)nc1N [Compound 16, Ethyl 4-amino-2-(4-(quinoxalin-2-yl)piperazin-1-yl)pyrimidine-5-carboxylate] |
| 12.8 | CCOC(=O)c1cnc(N2CCN(c3ccc(OC)cc3)CC2)nc1N [Compound 17, Ethyl 4-amino-2-(4-(4-methoxyphenyl)piperazin-1-yl)pyrimidine-5-carboxylate] |
| 45 | COc1ccc(NC(=O)c2cnc(N3C4CCC3CN(c3cc5ccccc5cn3)C4)nc2N)cc1 [Compound 19, 4-Amino-2-(3-(isoquinolin-3-yl)-3,8-diazabicyclo[3.2.1]octan-8-yl)-N-(4-methoxyphenyl)pyrimidine-5-carboxamide] |
| 255 | COc1ccc(NC(=O)c2cnc(N3CC4CCC(C3)N4c3cc4ccccc4cn3)nc2N)cc1 [Compound 21, 4-Amino-2-(8-(isoquinolin-3-yl)-3,8-diazabicyclo[3.2.1]octan-3-yl)-N-(4-methoxyphenyl)pyrimidine-5-carboxamide] |
| 6 | COc1ccc(NC(=O)c2cnc(N3CCN(c4nc5ccccc5o4)CC3)nc2N)cc1 [Compound 26, 4-Amino-2-(4-(benzo[d]oxazol-2-yl)piperazin-1-yl)-N-(4-methoxyphenyl)pyrimidine-5-carboxamide] |

| Ki [nM] | SMILES |
| --- | --- |
| 1.1 | COc1ccc(NC(=O)c2cnc(N3CCN(c4nc5ccccc5s4)CC3)nc2N)cc1 [Compound 27, 4-Amino-2-(4-(benzo[d]thiazol-2-yl)piperazin-1-yl)-N-(4-methoxyphenyl)pyrimidine-5-carboxamide] |
| 44.5 | COc1ccc(NC(=O)c2cnc(N3CCN(c4ccc(OC)cc4)CC3)nc2N)cc1 [Compound 33, 4-Amino-N-(4-methoxyphenyl)-2-(4-(4-methoxyphenyl)piperazin-1-yl)pyrimidine-5-carboxamide] |
| 10 | Nc1nc(N2CCN(c3ccccn3)CC2)ncc1C(=O)Nc1ccc(F)cc1 [Compound 34, 4-Amino-N-(4-fluorophenyl)-2-(4-(pyridin-2-yl)piperazin-1-yl)pyrimidine-5-carboxamide] |
| 41.4 | Nc1nc(N2CCN(c3ccccn3)CC2)ncc1C(=O)OCCO [Compound 37, 2-Hydroxyethyl 4-amino-2-(4-(pyridin-2-yl)piperazin-1-yl)pyrimidine-5-carboxylate] |
| 84.1 | Cc1cnc(N2CCN(c3ccccn3)CC2)nc1N [Compound 39, 5-Methyl-2-(4-(pyridin-2-yl)piperazin-1-yl)pyrimidin-4-amine] |
| 7.5 | N#Cc1cnc(N2CCN(c3ccccn3)CC2)nc1N [Compound 41, 4-Amino-2-(4-(pyridin-2-yl)piperazin-1-yl)pyrimidine-5-carbonitrile] |
| 6.5 | COc1ccc(NC(=O)c2cnc(Cl)nc2)cc1 [Compound 43, 2-Chloro-N-(4-methoxyphenyl)pyrimidine-5-carboxamide] |
| 21.9 ± 9.7 | COc1ccc(C(=O)Nc2ccc(N3CCC4(CC3)CCN(c3ccccn3)C4)cc2)cc1 [Compound 101, 4-methoxy-N-(4-(2-(pyridin-2-yl)-2,8-diazaspiro[4.5]decan-8-yl)phenyl)benzamide] |
| 8.7 ± 0.6 | COc1ccc(C(=O)Nc2ccc(N3CCCN(c4ccccn4)CC3)cc2)cc1 [Compound 107, 4-methoxy-N-(4-(4-(pyridin-2-yl)-1,4-diazepan-1-yl)phenyl)benzamide] |
| 5 ± 0.34 | COc1ccc(C(=O)Nc2ccc(N3CCN(c4ccccn4)CC3)cn2)cc1 [Compound 109, 4-methoxy-N-(5-(4-(pyridin-2-yl)piperazin-1-yl)pyridin-2-yl)benzamide] |
| 28.6 ± 33 | COc1ccc(C(=O)Nc2ccc(N3CC(OC)C3)cc2)cc1 [Compound 115, 4-methoxy-N-(4-(3-methoxyazetidin-1-yl)phenyl)benzamide] |
| 12.7 ± 2.3 | O=C(Nc1ccc(N2C3CCC2CN(c2ccccn2)C3)cc1)c1ccc(OCCF)cc1 [Compound 116, 4-(2-fluoroethoxy)-N-(4-(3-(pyridin-2-yl)-3,8-diazabicyclo[3.2.1]octan-8-yl)phenyl)benzamide] |
| 142 | COc1ccc(NC(=O)c2cnc(N3CCN(c4cccnc4)CC3)nc2N)cc1 [Compound 118, 4-Amino-N-(4-methoxyphenyl)-2-(4-(pyridin-3-yl)piperazin-1-yl)pyrimidine-5-carboxamide] |
| 19.5 | CCOC(=O)c1cnc(N2CCN(c3ncccn3)CC2)nc1N [Compound 119, Ethyl 4-amino-2-(4-(pyrimidin-2-yl)piperazin-1-yl)pyrimidine-5-carboxylate] |
| 8.4 | CCOC(=O)c1cnc(N2CCN(c3cnccn3)CC2)nc1N [Compound 121, Ethyl 4-amino-2-(4-(pyrazin-2-yl)piperazin-1-yl)pyrimidine-5-carboxylate] |
| 51.1 | CCOC(=O)c1cnc(N2CCN(c3nccs3)CC2)nc1N [Compound 123, Ethyl 4-amino-2-(4-(thiazol-2-yl)piperazin-1-yl)pyrimidine-5-carboxylate] |
| 29.9 | COc1ccc(NC(=O)c2cnc(N3CCN(c4nccs4)CC3)nc2N)cc1 [Compound 124, 4-Amino-N-(4-methoxyphenyl)-2-(4-(thiazol-2-yl)piperazin-1-yl)pyrimidine-5-carboxamide] |
| 522 | COc1ccc(NC(=O)c2cnc(N3CC4CCC(C3)N4c3cnc4ccccc4c3)nc2N)cc1 [Compound 126, 4-Amino-N-(4-methoxyphenyl)-2-(8-(quinolin-3-yl)-3,8-diazabicyclo[3.2.1]octan-3-yl)pyrimidine-5-carboxamide] |
| 1.26 | Nc1nc(N2CCN(c3nc4ccccc4o3)CC2)ncc1C(=O)Nc1ccc(OCCF)cc1 [Compound 133, 4-Amino-2-(4-(benzo[d]oxazol-2-yl)piperazin-1-yl)-N-(4-(2-fluoroethoxy)phenyl)pyrimidine-5-carboxamide] |

| SMILES | Ki [nM] |
| --- | --- |
| COc1ccc(C(=O)Nc2ccc(N3C4CCC3CN(c3ccccn3)C4)cc2)cc1 [Compound 103, 4-methoxy-N-(4-(3-(pyridin-2-yl)-3,8-diazabicyclo[3.2.1]octan-8-yl)phenyl)benzamide] | 6.1 ± 2.1 |
| COc1ccc(C(=O)Nc2ccc(N3C4CCC3CN(c3cnc5ccccc5n3)C4)cc2)cc1 [Compound 105, 4-methoxy-N-(4-(3-(quinoxalin-2-yl)-3,8-diazabicyclo[3.2.1]octan-8-yl)phenyl)benzamide] | 47.6 ± 14 |
| COc1ccc(C(=O)Nc2ccc(N3C4CCC3CN(c3ccccn3)C4)cn2)cc1 [Compound 110, 4-methoxy-N-(5-(3-(pyridin-2-yl)-3,8-diazabicyclo[3.2.1]octan-8-yl)pyridin-2-yl)benzamide] | 44.1 ± 32 |

Source: US20260317337A1, “HETEROCYCLIC COMPOUNDS FOR IMAGING AGGREGATED ALPHA SYNUCLEIN IN THE SYNUCLEINOPATHIES” (THE TRUSTEES OF THE UNIVERSITY OF PENNSYLVANIA, priority 2023, published 2026)
